In US20100323979A1, “METHODS AND COMPOSITIONS FOR INHIBITING PROLIFERATION OF ANEUPLOID CELLS” (priority 2009, published 2010):

Key:
[1] = test system: trisomic primary MEF cells; test: Cell proliferation assay, trisomic MEFs; type: cell-based, mouse; conditions: for sensitivity in relation to size of the additional chromosome: trisomy 1 versus trisomy 16 or 19
Protocol: MEF cells were cultured in DMEM supplemented with 10% FBS, 2 mM glutamine, 50 U/ml penicillin, and 50 U/ml streptomycin. […] Lymphoma cells were cultured in IMDM supplemented with 10% FBS, 2 mM glutamine, 50U/ml penicillin, 50 U/ml streptomycin and […] beta-mercaptoethanol. All cells were cultured at 37° C. with 5% CO2 in a humidified environment. In all experiments, cells were counted using a Cellometer Auto T4 automated hemacytometer (Nexcelom). […] After infection with shRNA constructs, GFP+FACS sorted cells were plated at a density of 5×10^5 cells/well in 6-well plates. Cells were treated with AICAR at various concentrations or solvent control then counted at indicated time point.

[2] = test system: Eμ-Myc;Arf−/− lymphoma cells; test: Cell proliferation assay, euploid lymphoma cells; type: cell-based; conditions: various concentrations, 24 h, FIG. 2A
Protocol: (§1) All euploid (WT) and aneuploid (Ts) mouse embryonic fibroblast (MEF) lines were established as previously described (Williams, B. R. et al., 2008). MEF cells were cultured in DMEM supplemented with 10% FBS, 2 mM glutamine, 50 U/ml penicillin, and 50 U/ml streptomycin. Eμ-Myc;Arf−/− and Eμ-Myc;p53−/− lymphoma cells were established as previously described (Wendel, H. et al., 2006). Lymphoma cells were cultured in IMDM supplemented with 10% FBS, 2 mM glutamine, 50U/ml penicillin, 50 U/ml streptomycin and […] beta-mercaptoethanol. All cells were cultured at 37° C. with 5% CO2 in a humidified environment. In all experiments, cells were counted using a Cellometer Auto T4 automated hemacytometer (Nexcelom).
(§2) Exponentially growing early passage MEFs were plated at a density of 2×10^5 cells/well in 6-well plates and lymphoma cells were cultured and infected as described previously (Hemann, M. T. et al., 2003). After infection with shRNA constructs, GFP+FACS sorted cells were plated at a density of 5×10^5 cells/well in 6-well plates. Cells were treated with AICAR at various concentrations or solvent control then counted at indicated time point.

[3] = test system: Eμ-Myc;p53−/− lymphoma cells; test: Cell proliferation assay, aneuploid lymphoma cells; type: cell-based
Protocol: as §1
AMPK-specific shRNA constructs were generated as described previously (Silva, J. M. et al., 2005). Targeting sequences were selected based on BIOPREDsi design (Huesken, D, et al., 2005).
as §2

[4] = test system: autophagy (LC3, BNIP3) in trisomy 13 and 16 MEFs; test: Autophagy markers in trisomic MEFs (LC3 immunoblot, RT-qPCR, GFP-LC3 puncta); type: cell-based, mouse
Protocol: (§3) Western blotting was performed as previously described (Dickins, R. A. et al., 2005). Proteins were detected by using the following antibodies: anti-AMPKα (Cell signaling technology), anti-Hsp70 (Stressgen), and anti-β actin (Sigma). Secondary antibodies were horseradish peroxidase-conjugated anti-mouse or anti-rabbit IgG (GE Healthcare; 1:5,000).
For GFP-LC3 fluorescence imaging, wild-type GFP-LC3 and trisomic GFP-LC3 MEF cells were exposed to the indicated drug treatments in phenol red-free DMEM. All fluorescence images were acquired using a Nikon digital sight DS-Qil MC camera on a Nikon Eclipse Ti inverted microscope. All single plane images were acquired and processed using the NIS-Element AR 3.0 software.
Total RNA from MEFs was isolated using the RNeasy Mini Kit (Qiagen) according to the manufacturer's instructions. 1μg RNA was used to generate cDNAs using RETROscript kit (Ambion). qPCR was performed by mixing iQ SYBR Green Supermix (Bio-Rad) with the primers described in Table S2, and amplified using a LightCycler 480 II (Roche). The LightCycler software was used to evaluate gene expression level and normalized to a ribosomal reference gene, rpl19.

[5] = test system: inducible Hsp70 in trisomic MEFs; test: Inducible Hsp70 levels by immunoblotting in trisomic MEFs; type: cell-based, mouse; conditions: indicated doses, FIG. 4D
Protocol: as §3

Row | Structure (SMILES) | proliferation of trisomy 1, 13, 16 and 19 cells ([1]; 100 nM, cell number after 3 days, FIG. 3A) | proliferation of trisomic/aneuploid cells versus wild-type (cell number) ([1]; single agent, cell number after 3 days, FIG. 3A/3B) | sensitivity in relation to size of the additional chromosome ([1]; FIG. 3A/3B) | sensitivity of MEFs carrying trisomies (cell count relative to non-treated control) ([1]; trisomic for chromosome 1, 13, 16 or 19, 0-0.5 mM, 72 or 144 h, FIG. 1) | sensitivity of euploid immortalized B-cells (cell count relative to control) [2] | proliferation after knock-down of AMPK ([3]; Eμ-Myc;p53−/− infected with AMPK-specific shRNA, FIG. 2B) | sensitivity of aneuploid B cells (cell count relative to control) ([3]; Eμ-Myc;p53−/−, various concentrations, 24 h, FIG. 2A) | LC3 incorporation into autophagosomes ([4]; 24 hours after treatment, LC3-GFP puncta, FIG. 4A-4C) | LC3 expression ([4]; FIG. 4A-4B) | Bnip3 expression ([4]; RT-qPCR normalized to rpl19, FIG. 4B) | Hsp70 activity (levels of inducible Hsp70) [5]
1 | C=CCNC1=C2C[C@@H](C)C[C@H](OC)[C@H](O)[C@@H](C)/C=C(\C)[C@H](OC(N)=O)[C@@H](OC)/C=C\C=C(/C)C(=O)NC(=CC1=O)C2=O [17-AAG, 17-(Allylamino)-17-demethoxygeldanamycin] | impaired | preferentially inhibited | higher sensitivity |  |  |  |  |  |  |  | 
2 | CCN(CC)CCCC(C)Nc1ccnc2cc(Cl)ccc12 (stereo not drawn) [chloroquine] |  |  | correlated with the size of the additional chromosome |  |  |  |  |  |  |  | 
3 | NC(=O)c1ncn([C@@H]2O[C@H](CO)[C@@H](O)[C@H]2O)c1N [AICAR, 5-aminoimidazole-4-carboxamide riboside] |  |  |  | sensitive | not sensitive | proliferate the same in the presence and absence of AICAR | sensitive | further induced | further induced | further induced | further increase
